US20210330650A1, “SPIROCHROMANE DERIVATIVES” (RICHTER GEDEON NYRT., priority 2018, published 2021)

Legend:
human α7 nAchR = molecular target: T1, human α7 nAchR (Homo sapiens, UniProt P36544); assay: Human α7 nicotinic acetylcholine receptor [Ca2+]i assay (Ca2+ fluorometry, PAM concentration-response); format: cell-based; details: Flp-In 293 cells expressing human α7 nAchR and human RIC-3; in presence of saturating agonist (mostly PNU-282987, 1 μM)
T1 construct: expressed in transfected cells
Experimental: Human α7 Nicotinic Acetylcholine Receptor [Ca2+]i Assay
Cells: Flp-In 293 cells stably expressing human α7 nAchR and human RIC-3 (α7 cells, generated in house.)
Materials: 96-well plates coated with PDL (Falcon), culture medium, assay buffer, DMSO, FLIPR Calcium 5 kit (Molecular Devices), probenecid, agonist and PAM test compounds.
Brief Description of the Method (Ca^2+ Fluorometry)
α7 cells stably expressing human α7 nAchR were cultured in the medium detailed above, and were split twice a week. For the fluorometric measurements of cytosolic Ca^2+ ion concentration ([Ca^2+]i) cells were seeded in 96-well microplates at a density of 60000 cells/well and maintained overnight in a tissue culture incubator at 37° C. under an atmosphere of 95% air/5% CO2. The plating medium was identical with the culture medium. 50 μl of the growth medium was aspirated with a cell washer (BioTek Elx405UCVWS). Then 50 μl/well Calcium 5 kit diluted 2-fold in assay buffer was added manually using an 8-channel pipette. After an incubation period (20 minutes, 37° C.) 50 μl/well assay buffer containing vehicle (DMSO, 4% added) or reference α7 PAMs (4× of the final concentration) were added manually and the cells were incubated for an additional 10 minutes at 37° C. Baseline and agonist-evoked [Ca^2+]i-changes were monitored with FlexStation II (Molecular Devices, Sunnyvale, Calif.), a plate reader fluorometer with integrated 8-channel fluid addition capability. Fluorescence measurements were carried out at 37° C. The dye was excited at 485 nm, emission was sampled at 525 nm at 1.4-s intervals. Baseline was recorded for 20 seconds followed by agonist stimulation. 50 μl 4× concentrated agonist solution was added to the cells using the pipettor of FlexStation II and fluorescence was monitored for an additional 40 seconds. Final DMSO concentration was 1% for all treatments. To achieve this, a series of DMSO stock solutions were prepared from all test compounds. These stocks were stored under 0° C. and were further diluted in assay buffer to obtain the desired final concentration immediately before the measurement. Agonist and PAM concentration-response studies were conducted in the presence of saturating concentrations of PAMs (mostly PNU-120596, 5 μM) and agonists (mostly PNU-282987, 1 μM), respectively. Results were expressed as ΔF/F values using SoftMax Pro software (Molecular Devices), where F was the resting fluorescence preceding agonist application and ΔF was the increase in fluorescence at a given time (ΔF=maximum fluorescence intensity values after stimulation minus average fluorescence intensity values before stimulation). In all experiments, all treatments were measured in multiple wells in parallel, and the mean ΔF/F values were used for analysis.

Male NMRI mice = assay: Place recognition test (Y-maze), reversal of scopolamine-induced amnesia; format: in vivo; details: scopolamine 1 mg/kg i.p.
Experimental: In Vivo Pharmacology (Place Recognition Test)
Animals: Male NMRI mice (Toxicoop, Hungary)
Substances: Scopolamine was dissolved in saline and administered at 1 mg/kg dose i.p. Test compounds were administered 30 minutes before the acquisition trial (T1) and scopolamine after the acquisition trial at a volume of 0.1 ml/10 g.
Procedure: The task was carried out in a transparent plexiglass Y-maze (each arm has a length of 40 cm, an inner width of 11 cm and a height of 30 cm). Numerous visual cues were placed around the arms and were kept constant during the experiment. The test consisted of two trials (T1 and T2) separated by an intertrial interval of 30 minutes. Mice were placed in the starting arm of the maze at the beginning of each trial. In T1, one of the symmetric arms of the maze was closed (it will be novel in T2) and the animals were allowed to explore the maze for 5 minutes (acquisition phase). In T2, mice had free access to all three arms for 2 minutes (retrieval phase). The time spent with exploration in the novel and familiar arms during T2 was measured. Differences between the exploration times spent in the familiar vs. novel arms of the maze for each group were evaluated by MANOVA, followed by Duncan post hoc test.

T1 sequence (P36544 23-502): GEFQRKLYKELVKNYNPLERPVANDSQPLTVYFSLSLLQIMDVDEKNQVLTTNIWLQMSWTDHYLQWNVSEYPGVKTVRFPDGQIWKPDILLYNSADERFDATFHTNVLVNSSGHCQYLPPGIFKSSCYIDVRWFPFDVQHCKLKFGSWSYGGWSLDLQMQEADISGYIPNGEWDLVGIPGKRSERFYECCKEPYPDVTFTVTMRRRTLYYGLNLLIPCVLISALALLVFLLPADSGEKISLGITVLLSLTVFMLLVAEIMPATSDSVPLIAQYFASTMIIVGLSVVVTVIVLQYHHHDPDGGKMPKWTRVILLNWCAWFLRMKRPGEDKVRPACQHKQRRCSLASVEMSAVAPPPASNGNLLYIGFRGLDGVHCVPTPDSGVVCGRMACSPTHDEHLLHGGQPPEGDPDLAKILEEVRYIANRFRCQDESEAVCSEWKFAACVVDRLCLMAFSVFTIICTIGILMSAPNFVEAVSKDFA

| SMILES | EC50 (human α7 nAchR) [nM] | reversal of the scopolamine-induced amnesia in the place recognition assay (exploration time novel vs. familiar arm, significance) (Male NMRI mice; 1 mg/kg i.p.) | reversal of the scopolamine-induced amnesia in the place recognition assay (exploration time novel vs. familiar arm, significance) (Male NMRI mice; 3 mg/kg i.p.) | reversal of the scopolamine-induced amnesia in the place recognition assay (exploration time novel vs. familiar arm, significance) (Male NMRI mice; 10 mg/kg i.p.) |
| --- | --- | --- | --- | --- |
| Cn1ccc2cc(CNC(=O)N3CC4(CC(=O)c5ccc(F)cc5O4)C3)ccc21 [Example 6, 7′-fluoro-N-[(1-methyl-1H-indol-5-yl)methyl]-4′-oxo-3′,4′-dihydrospiro[azetidine-3,2′-[1]benzopyran]-1-carboxamide] | 190 | + (^+p < 0.05) | ++ (^++p < 0.01) | +++ (^+++p < 0.001) |
| Cn1ccc2cc(CNC(=O)N3CC4(CC(=O)c5cc(C(F)(F)F)ccc5O4)C3)ccc21 [Example 50] | 150 |  |  |  |
| O=C1CC2(CN(C(=O)NCc3ccc4[nH]c(C(F)F)cc4c3)C2)Oc2cc(F)ccc21 [Example 69, N-{[2-(difluoromethyl)-1H-indol-5-yl]methyl}-7′-fluoro-4′-oxo-3′,4′-dihydrospiro[azetidine-3,2′-[1]benzopyran]-1-carboxamide] | 120 |  |  |  |
| Cn1ccc2cc(CNC(=O)N3CCC4(CC(=O)c5cc(Cl)ccc5O4)C3)ccc21 (single isomer, unassigned) [Example 5b] | 400 |  |  |  |
| O=C1CC2(CN(C(=O)NCc3ccc4[nH]ccc4c3)C2)Oc2ccc(Cl)cc21 [Example 26, 6′-chloro-N-[(1H-indol-5-yl)methyl]-4′-oxo-3′,4′-dihydrospiro[azetidine-3,2′-[1]benzopyran]-1-carboxamide] | 390 |  | + (^+p < 0.05) |  |
| O=C1CC2(CN(C(=O)NCc3ccc4[nH]c(Cl)cc4c3)C2)Oc2cc(Cl)ccc21 [Example 43, 7′-chloro-N-[(2-chloro-1H-indol-5-yl)methyl]-4′-oxo-3′,4′-dihydrospiro[azetidine-3,2′-[1]benzopyran]-1-carboxamide] | 360 | + (^+p < 0.05) | +++ (^+++p < 0.001) | +++ (^+++p < 0.001) |
| CN1CCCc2cc(CNC(=O)N3CC4(CC(=O)c5ccc(F)cc5O4)C3)ccc21 [Example 71, 7′-Fluoro-N-[(1-methyl-1,2,3,4-tetrahydroquinolin-6-yl)methyl]-4′-oxo-3′,4′-dihydrospiro[azetidine-3,2′-[1]benzopyran]-1-carboxamide] | 2300 |  |  |  |
| Cc1cc2cc(CNC(=O)N3CC4(CC(=O)c5ccc(C(F)(F)F)cc5O4)C3)cnc2n1C [Example 65] | 750 |  |  |  |
| Cn1ccc2cc(CNC(=O)N3CCC4(CC(=O)c5cc(Cl)ccc5O4)C3)ccc21 (racemic) [Example 5] | 210 |  |  |  |
| Cn1cc(Cl)c2cc(CNC(=O)N3CC4(CC(=O)c5cc(F)ccc5O4)C3)cnc21 [Example 39] | 730 |  |  |  |
| Cn1cc(Br)c2cc(CNC(=O)N3CC4(CC(=O)c5cc(F)ccc5O4)C3)cnc21 [Example 53] | 850 |  |  |  |
| Cn1ccc2cc(CNC(=O)N3CC4(CC(=O)c5cc(Cl)ccc5O4)C3)ccc21 [Example 3, 6′-chloro-N-[(1-methyl-1H-indol-5-yl)methyl]-4′-oxo-3′,4′-dihydrospiro[azetidine-3,2′-[1]benzopyran]-1-carboxamide] | 120 |  |  |  |
| COc1ccc2c(c1)C(=O)CC1(CN(C(=O)NCc3ccc4c(c3)c(Cl)cn4C)C1)O2 [Example 25] | 230 |  |  |  |
| Cc1cc2cc(CNC(=O)N3CC4(CC(=O)c5cc(F)ccc5O4)C3)ccc2[nH]1 [Example 1, 6′-Fluoro-N-[(2-methyl-1H-indol-5-yl)methyl]-4′-oxo-3′,4′-dihydrospiro[azetidine-3,2′-[1]benzopyran]-1-carboxamide] | 120 | ++ (^++p < 0.01) |  |  |
| Cn1ccc2cc(CNC(=O)N3CC4(CC(=O)c5ccc(C(F)(F)F)cc5O4)C3)ccc21 [Example 52, N-[(1-methyl-1H-indol-5-yl)methyl]-4′-oxo-7′-(trifluoromethyl)-3′,4′-dihydrospiro[azetidine-3,2′-[1]benzopyran]-1-carboxamide] | 130 |  |  | + (^+p < 0.05) |
| Cn1ccc2cc(CNC(=O)N3CC4(CC(=O)c5cc(Cl)cc(Cl)c5O4)C3)cnc21 [Example 58] | 470 |  |  |  |
| Cn1ccc2cc(CNC(=O)N3CC4(CC(=O)c5ccc(C(F)(F)F)cc5O4)C3)cnc21 [Example 59] | 500 |  |  |  |
| O=C1CC2(CN(C(=O)NCc3ccc4[nH]c(C(F)(F)F)cc4c3)C2)Oc2cc(F)ccc21 [Example 61, 7′-fluoro-4′-oxo-N-{[2-(trifluoromethyl)-1H-indol-5-yl]methyl}-3′,4′-dihydrospiro[azetidine-3,2′-[1]benzopyran]-1-carboxamide] |  |  | ++ (^++p < 0.01) | +++ (^+++p < 0.001) |
| Cn1ccc2cc(CNC(=O)N3CC4(CC(=O)c5ccccc5O4)C3)ccc21 [Example 7, N-[(1-methyl-1H-indol-5-yl)methyl]-4′-oxo-3′,4′-dihydrospiro[azetidine-3,2′-[1]benzopyran]-1-carboxamide] | 230 | +++ (^+++p < 0.001) | +++ (^+++p < 0.001) | +++ (^+++p < 0.001) |
| Cc1cc2cc(CNC(=O)N3CC4(CC(=O)c5cc(F)cc(F)c5O4)C3)ccc2[nH]1 [Example 41, 6′,8′-difluoro-N-[(2-methyl-1H-indol-5-yl)methyl]-4′-oxo-3′,4′-dihydrospiro[azetidine-3,2′-[1]benzopyran]-1-carboxamide] | 60 | + (^+p < 0.05) | + (^+p < 0.05) |  |
| COc1ccc2c(c1)OC1(CCN(C(=O)NCc3ccc4c(ccn4C)c3)CC1)CC2=O [Example 21] | 280 |  |  |  |
| Cn1ccc2cc(CNC(=O)N3CCC4(CCc5cc(Cl)ccc5O4)CC3)ccc21 [Example 10, 6-chloro-N-[(1-methyl-1H-indol-5-yl)methyl]-3,4-dihydrospiro[1-benzopyran-2,4′-piperidine]-1′-carboxamide] | 100 |  |  |  |
| Cn1ccc2cc(CNC(=O)N3CCC4(CC(=O)c5cc(Cl)ccc5O4)C3)ccc21 (single isomer, unassigned) [Example 5a] | 430 |  |  |  |
| Cn1cc(F)c2cc(CNC(=O)N3CC4(CC(=O)c5cc(F)ccc5O4)C3)ccc21 [Example 38] | 220 |  |  |  |
| Cn1cc(Cl)c2cc(CNC(=O)N3CC4(CC(=O)c5ccccc5O4)C3)ccc21 [Example 37] | 130 |  |  |  |
